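Grown in 96-well plates, cells were treated for 48 hours with each compound at five concentrations. Insufficient inhibition: endpoint recorded as highest concentration tested. GI50 = concentration required for 50% inhibition of growth.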 Active and inactive are the calls of the source. Cut-off read from the data, not from the text of the source: active = GI50 up to about 1.1 µM and inactive = higher.
Tests used:
Experiment in all cases: NCI-60 cell line screen, 48 h
[1] = system: 786-0
[2] = system: A498
[3] = system: A549
[4] = system: ACHN
[5] = system: BT-549
[6] = system: CAKI-1
[7] = system: CCRF-CEM
[8] = system: COLO 205
[9] = system: DU-145
[10] = system: EKVX
[11] = system: HCC 2998
[12] = system: HCT-116
[13] = system: HCT-15
[14] = system: HL-60
[15] = system: HOP-62
[16] = system: HOP-92
[17] = system: HT-29
[18] = system: Hs-578T
[19] = system: IGROV-1
[20] = system: K562
[21] = system: KM12
[22] = system: LOX IMVI
[23] = system: M14
[24] = system: MCF7
[25] = system: MDA-MB-231
[26] = system: MDA-MB-435
[27] = system: MDA-N
[28] = system: MOLT-4
[29] = system: NCI-H460
[30] = system: NCI/ADR-RES
[31] = system: OVCAR-3
[32] = system: OVCAR-4
[33] = system: OVCAR-5
[34] = system: OVCAR-8
[35] = system: PC-3
[36] = system: RPMI-8226
[37] = system: SF-268
[38] = system: SF-295
[39] = system: SF-539
[40] = system: SK-MEL-28
[41] = system: SK-MEL-2
[42] = system: SK-MEL-5
[43] = system: SK-OV-3
[44] = system: SN12C
[45] = system: SNB-19
[46] = system: SNB-75
[47] = system: SR
[48] = system: SW-620
[49] = system: T47D
[50] = system: TK-10
[51] = system: U-251
[52] = system: UACC-257
[53] = system: UACC-62
[54] = system: UO-31
[55] = system: Malme-3M
[56] = system: NCI-H226
[57] = system: NCI-H23
[58] = system: NCI-H522
[59] = system: RXF 393

`COc1ccc(OC)c2sc(N3C(=O)/C(=C/Cc4ccco4)N=C3c3ccccc3)nc12` was tested, and the GI50 [1] was 35.5 µM (inactive), the GI50 [2] was 66.2 µM (inactive) and the GI50 [3] was 34.7 µM (inactive). For the same compound, the GI50 [4] was 26.7 µM (inactive), the GI50 [5] was 50.2 µM (inactive) and the GI50 [6] was 81.1 µM (inactive). The GI50 [7] was 11.7 µM (inactive), the GI50 [8] was 50.5 µM (inactive) and the GI50 [9] was 32.4 µM (inactive). The GI50 [10] was 66.8 µM (inactive), the GI50 [11] was > 100 µM (inactive) and the GI50 [12] was 27.3 µM (inactive). The GI50 [13] was 42.7 µM, the GI50 [14] was 18.1 µM (inactive) and the GI50 [15] was 43 µM (inactive). The GI50 [16] was 35.8 µM (inactive), the GI50 [17] was 44 µM (inactive) and the GI50 [18] was 42.2 µM (inactive). The GI50 [19] was 30.6 µM (inactive), the GI50 [20] was 29.9 µM (inactive) and the GI50 [21] was 38.8 µM (inactive). For the same compound, the GI50 [22] was 25.1 µM (inactive), the GI50 [23] was 37.6 µM (inactive) and the GI50 [24] was 17.7 µM (inactive). For the same compound, the GI50 [25] was > 100 µM (inactive), the GI50 [26] was 19.4 µM (inactive) and the GI50 [27] was 19.6 µM (inactive). The GI50 [28] was 17.9 µM (inactive), the GI50 [29] was 50.1 µM (inactive) and the GI50 [30] was 63.1 µM (inactive). The GI50 [31] was 31.4 µM (inactive), the GI50 [32] was 32 µM (inactive) and the GI50 [33] was > 100 µM (inactive). The GI50 [34] was 33.5 µM (inactive), the GI50 [35] was 24.5 µM (inactive) and the GI50 [36] was 15.5 µM (inactive). For the same compound, the GI50 [37] was 34 µM (inactive), the GI50 [38] was 73.1 µM (inactive) and the GI50 [39] was 53.5 µM (inactive). For the same compound, the GI50 [40] was 79.1 µM (inactive), the GI50 [41] was 24.1 µM (inactive) and the GI50 [42] was 21.2 µM (inactive). For the same compound, the GI50 [43] was 83.4 µM (inactive), the GI50 [44] was 33.3 µM (inactive) and the GI50 [45] was 47.3 µM (inactive). For the same compound, the GI50 [46] was 24.7 µM (inactive), the GI50 [47] was 19.4 µM (inactive) and the GI50 [48] was 32.5 µM (inactive). The GI50 [49] was 26 µM (inactive), the GI50 [50] was > 100 µM (inactive) and the GI50 [51] was 22.5 µM (inactive). The GI50 [52] was > 100 µM (inactive), the GI50 [53] was 21.8 µM (inactive) and the GI50 [54] was 30.9 µM (inactive).

For `O=C1/C(=C/c2cc3c(=O)c4ccccc4sc3s2)NC(=S)N1c1ccccc1`, the GI50 [1] was 23.7 µM (inactive), the GI50 [2] was > 100 µM (inactive) and the GI50 [4] was > 100 µM (inactive). For the same compound, the GI50 [5] was 51.8 µM (inactive), the GI50 [6] was > 100 µM (inactive) and the GI50 [8] was > 100 µM (inactive). For the same compound, the GI50 [9] was > 100 µM (inactive), the GI50 [10] was 48.3 µM (inactive) and the GI50 [11] was > 100 µM (inactive). For the same compound, the GI50 [12] was 40.4 µM (inactive), the GI50 [13] was greater than 100 µM and the GI50 [14] was 12.2 µM (inactive). The GI50 [15] was 5.01 µM (inactive), the GI50 [17] was > 100 µM (inactive) and the GI50 [18] was > 100 µM (inactive). The GI50 [19] was > 100 µM (inactive), the GI50 [20] was 40.6 µM (inactive) and the GI50 [21] was > 100 µM (inactive). For the same compound, the GI50 [22] was > 100 µM (inactive), the GI50 [24] was > 100 µM (inactive) and the GI50 [25] was 89.9 µM (inactive). The GI50 [26] was > 100 µM (inactive), the GI50 [27] was > 100 µM (inactive) and the GI50 [28] was 24.5 µM (inactive). The GI50 [55] was > 100 µM (inactive), the GI50 [56] was > 100 µM (inactive) and the GI50 [57] was > 100 µM (inactive). The GI50 [29] was > 100 µM (inactive), the GI50 [58] was > 100 µM (inactive) and the GI50 [30] was > 100 µM (inactive). The GI50 [31] was > 100 µM (inactive), the GI50 [32] was > 100 µM (inactive) and the GI50 [33] was > 100 µM (inactive). For the same compound, the GI50 [34] was > 100 µM (inactive), the GI50 [35] was > 100 µM (inactive) and the GI50 [36] was > 100 µM (inactive). The GI50 [59] was 15.4 µM (inactive), the GI50 [37] was 55 µM (inactive) and the GI50 [38] was 66.4 µM (inactive). For the same compound, the GI50 [40] was > 100 µM (inactive), the GI50 [41] was 78.7 µM (inactive) and the GI50 [42] was 91.2 µM (inactive). For the same compound, the GI50 [44] was > 100 µM (inactive), the GI50 [45] was 24 µM (inactive) and the GI50 [46] was 5.11 µM (inactive). The GI50 [47] was 12.8 µM (inactive), the GI50 [48] was > 100 µM (inactive) and the GI50 [49] was > 100 µM (inactive). The GI50 [50] was > 100 µM (inactive), the GI50 [51] was 21 µM (inactive) and the GI50 [52] was > 100 µM (inactive). For the same compound, the GI50 [53] was > 100 µM (inactive) and the GI50 [54] was > 100 µM (inactive).

From ChEMBL document CHEMBL1201862, “PubChem BioAssay data set” (2004)
